Experimental data reported in article PMC7385619, “A triple action CDK4/6-PI3K-BET inhibitor with augmented cancer cell cytotoxicity” (Cell Discovery, 2020).
Like-named read-outs stand apart in the source and are kept apart here.

How the values were obtained:
Experiment in all cases: KINOMEscan assay (Eurofins DiscoverX)
Type in all cases: binding
kinome (kinase panel) [1] = target: T1, kinome (kinase panel) (Homo sapiens, UniProt Q8TDR2); conditions: STK35; 1000 nM; read-out: Percent Control
T1 construct: purchased Eurofins DiscoverX

kinome (kinase panel) [2] = target: T2, kinome (kinase panel) (Homo sapiens, UniProt Q9UM73, C1156Y); conditions: […]; 1000 nM; read-out: Percent Control
T2 construct: purchased Eurofins DiscoverX

kinome (kinase panel) [3] = target: T3, kinome (kinase panel) (Homo sapiens, UniProt Q9Y616); conditions: IRAK3; 1000 nM; read-out: Percent Control
T3 construct: purchased Eurofins DiscoverX

kinome (kinase panel) [4] = target: T4, kinome (kinase panel) (Homo sapiens, UniProt Q07912); conditions: TNK2; 1000 nM; read-out: Percent Control
T4 construct: purchased Eurofins DiscoverX

kinome (kinase panel) [5] = target: T5, kinome (kinase panel) (Homo sapiens, UniProt P00519, Q252H)
T5 construct: purchased Eurofins DiscoverX

kinome (kinase panel) [6] = target: T6, kinome (kinase panel) (Homo sapiens, UniProt P46734); conditions: MEK3 (Entrez MAP2K3); 1000 nM; read-out: Percent Control
T6 construct: purchased Eurofins DiscoverX

kinome (kinase panel) [7] = target: T7, kinome (kinase panel) (Homo sapiens, UniProt O75582); conditions: 1000 nM, read-out: Percent Control
T7 construct: purchased Eurofins DiscoverX

kinome (kinase panel) [8] = target: T8, kinome (kinase panel) (Homo sapiens, UniProt P22607); conditions: FGFR3; 1000 nM; read-out: Percent Control
T8 construct: purchased Eurofins DiscoverX

kinome (kinase panel) [9] = target: T9, kinome (kinase panel) (Homo sapiens, UniProt Q9H1R3); conditions: MYLK2; 1000 nM; read-out: Percent Control
T9 construct: purchased Eurofins DiscoverX

kinome (kinase panel) [10] = target: T10, kinome (kinase panel) (Homo sapiens, UniProt Q9UM73); conditions: ALK; 1000 nM; read-out: Percent Control
T10 construct: purchased Eurofins DiscoverX

kinome (kinase panel) [11] = target: T11, kinome (kinase panel) (Homo sapiens, UniProt Q06418); conditions: TYRO3; 1000 nM; read-out: Percent Control
T11 construct: purchased Eurofins DiscoverX

kinome (kinase panel) [12] = target: T12, kinome (kinase panel) (Homo sapiens, UniProt P11309); conditions: PIM1; 1000 nM; read-out: Percent Control
T12 construct: purchased Eurofins DiscoverX

kinome (kinase panel) [13] = target: T13, kinome (kinase panel) (Homo sapiens, UniProt P42336, E545K); conditions: read-out: Percent Control
T13 construct: purchased Eurofins DiscoverX

kinome (kinase panel) [14] = target: T14, kinome (kinase panel) (Homo sapiens, UniProt O75116); conditions: ROCK2; 1000 nM; read-out: Percent Control
T14 construct: purchased Eurofins DiscoverX

kinome (kinase panel) [15] = target: T15, kinome (kinase panel) (Homo sapiens, UniProt Q13163); conditions: MEK5 (Entrez MAP2K5); 1000 nM; read-out: Percent Control
T15 construct: purchased Eurofins DiscoverX

kinome (kinase panel) [16] = target: T16, kinome (kinase panel) (Homo sapiens, UniProt Q9UBE8); conditions: NLK; 1000 nM; read-out: Percent Control
T16 construct: purchased Eurofins DiscoverX

kinome (kinase panel) [17] = target: T17, kinome (kinase panel) (Homo sapiens, UniProt P14616); conditions: INSRR; 1000 nM; read-out: Percent Control
T17 construct: purchased Eurofins DiscoverX

kinome (kinase panel) [18] = target: T18, kinome (kinase panel) (Homo sapiens, UniProt P80192); conditions: MLK1 (Entrez MAP3K9); 1000 nM; read-out: Percent Control
T18 construct: purchased Eurofins DiscoverX

kinome (kinase panel) [19] = target: T19, kinome (kinase panel) (Homo sapiens, UniProt P31751); conditions: AKT2; 1000 nM; read-out: Percent Control
T19 construct: purchased Eurofins DiscoverX

kinome (kinase panel) [20] = target: T20, kinome (kinase panel) (Homo sapiens, UniProt Q9UIK4); conditions: DAPK2; 1000 nM; read-out: Percent Control
T20 construct: purchased Eurofins DiscoverX

kinome (kinase panel) [21] = target: T21, kinome (kinase panel) (Homo sapiens, UniProt P36888, R834Q); conditions: […]; 1000 nM; read-out: Percent Control
T21 construct: purchased Eurofins DiscoverX

kinome (kinase panel) [22] = target: T22, kinome (kinase panel) (Homo sapiens, UniProt Q9P0L2); conditions: MARK1; 1000 nM; read-out: Percent Control
T22 construct: purchased Eurofins DiscoverX

kinome (kinase panel) [23] = target: T23, kinome (kinase panel) (Homo sapiens, UniProt P06239); conditions: LCK; 1000 nM; read-out: Percent Control
T23 construct: purchased Eurofins DiscoverX

kinome (kinase panel) [24] = target: T24, kinome (kinase panel) (Homo sapiens, UniProt P00533, L858R); conditions: […]; 1000 nM; read-out: Percent Control
T24 construct: purchased Eurofins DiscoverX

kinome (kinase panel) [25] = target: T25, kinome (kinase panel) (Homo sapiens, UniProt O14578); conditions: CIT; 1000 nM; read-out: Percent Control
T25 construct: purchased Eurofins DiscoverX

kinome (kinase panel) [26] = target: T26, kinome (kinase panel) (Homo sapiens, UniProt Q13043); conditions: MST1 (Entrez STK4); 1000 nM; read-out: Percent Control
T26 construct: purchased Eurofins DiscoverX

kinome (kinase panel) [27] = target: T27, kinome (kinase panel) (Homo sapiens, UniProt O14936); conditions: CASK; 1000 nM; read-out: Percent Control
T27 construct: purchased Eurofins DiscoverX

kinome (kinase panel) [28] = target: T28, kinome (kinase panel) (Homo sapiens, UniProt O94768); conditions: DRAK2 (Entrez STK17B); 1000 nM; read-out: Percent Control
T28 construct: purchased Eurofins DiscoverX

kinome (kinase panel) [29] = target: T29, kinome (kinase panel) (Homo sapiens, UniProt Q59H18); conditions: TNNI3K; 1000 nM; read-out: Percent Control
T29 construct: purchased Eurofins DiscoverX

kinome (kinase panel) [30] = target: T30, kinome (kinase panel) (Homo sapiens, UniProt O43683); conditions: BUB1; 1000 nM; read-out: Percent Control
T30 construct: purchased Eurofins DiscoverX

kinome (kinase panel) [31] = target: T31, kinome (kinase panel) (Homo sapiens, UniProt P29322); conditions: EPHA8; 1000 nM; read-out: Percent Control
T31 construct: purchased Eurofins DiscoverX

kinome (kinase panel) [32] = target: T32, kinome (kinase panel) (Homo sapiens, UniProt P57058); conditions: HUNK; 1000 nM; read-out: Percent Control
T32 construct: purchased Eurofins DiscoverX

kinome (kinase panel) [33] = target: T33, kinome (kinase panel) (Homo sapiens, UniProt Q9P289); conditions: MST4; 1000 nM; read-out: Percent Control
T33 construct: purchased Eurofins DiscoverX

T7 sequence (O75582 whole entry): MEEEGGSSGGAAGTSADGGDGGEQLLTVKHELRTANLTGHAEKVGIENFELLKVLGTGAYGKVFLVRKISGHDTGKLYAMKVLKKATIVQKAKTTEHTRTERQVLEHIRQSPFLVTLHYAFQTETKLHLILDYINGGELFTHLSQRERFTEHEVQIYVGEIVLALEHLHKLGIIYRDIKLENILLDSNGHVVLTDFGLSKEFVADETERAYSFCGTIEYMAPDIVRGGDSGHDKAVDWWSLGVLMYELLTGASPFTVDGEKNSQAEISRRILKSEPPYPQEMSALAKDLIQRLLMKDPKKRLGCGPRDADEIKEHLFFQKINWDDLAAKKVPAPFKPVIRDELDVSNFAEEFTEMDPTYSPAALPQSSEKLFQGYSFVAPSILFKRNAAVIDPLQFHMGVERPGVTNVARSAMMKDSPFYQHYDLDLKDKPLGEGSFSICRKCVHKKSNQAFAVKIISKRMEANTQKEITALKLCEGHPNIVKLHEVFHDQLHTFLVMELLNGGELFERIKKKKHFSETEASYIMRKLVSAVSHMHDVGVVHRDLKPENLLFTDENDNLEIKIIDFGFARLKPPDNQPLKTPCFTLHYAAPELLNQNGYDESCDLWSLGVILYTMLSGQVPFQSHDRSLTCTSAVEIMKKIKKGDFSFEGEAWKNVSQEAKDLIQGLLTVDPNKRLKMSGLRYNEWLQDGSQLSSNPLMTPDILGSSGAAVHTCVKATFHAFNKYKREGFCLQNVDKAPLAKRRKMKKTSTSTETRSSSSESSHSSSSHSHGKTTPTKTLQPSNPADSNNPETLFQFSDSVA
T28 sequence (O94768 whole entry): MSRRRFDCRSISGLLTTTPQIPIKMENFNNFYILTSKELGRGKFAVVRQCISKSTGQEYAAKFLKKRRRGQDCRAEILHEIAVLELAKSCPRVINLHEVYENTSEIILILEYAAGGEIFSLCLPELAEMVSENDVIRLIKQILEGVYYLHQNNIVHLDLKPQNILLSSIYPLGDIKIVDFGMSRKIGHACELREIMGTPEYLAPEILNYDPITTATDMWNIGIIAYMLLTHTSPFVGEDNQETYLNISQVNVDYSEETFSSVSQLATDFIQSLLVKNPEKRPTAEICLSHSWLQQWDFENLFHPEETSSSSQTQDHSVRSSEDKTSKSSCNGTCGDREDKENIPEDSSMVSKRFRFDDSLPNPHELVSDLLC
T27 sequence (O14936 whole entry): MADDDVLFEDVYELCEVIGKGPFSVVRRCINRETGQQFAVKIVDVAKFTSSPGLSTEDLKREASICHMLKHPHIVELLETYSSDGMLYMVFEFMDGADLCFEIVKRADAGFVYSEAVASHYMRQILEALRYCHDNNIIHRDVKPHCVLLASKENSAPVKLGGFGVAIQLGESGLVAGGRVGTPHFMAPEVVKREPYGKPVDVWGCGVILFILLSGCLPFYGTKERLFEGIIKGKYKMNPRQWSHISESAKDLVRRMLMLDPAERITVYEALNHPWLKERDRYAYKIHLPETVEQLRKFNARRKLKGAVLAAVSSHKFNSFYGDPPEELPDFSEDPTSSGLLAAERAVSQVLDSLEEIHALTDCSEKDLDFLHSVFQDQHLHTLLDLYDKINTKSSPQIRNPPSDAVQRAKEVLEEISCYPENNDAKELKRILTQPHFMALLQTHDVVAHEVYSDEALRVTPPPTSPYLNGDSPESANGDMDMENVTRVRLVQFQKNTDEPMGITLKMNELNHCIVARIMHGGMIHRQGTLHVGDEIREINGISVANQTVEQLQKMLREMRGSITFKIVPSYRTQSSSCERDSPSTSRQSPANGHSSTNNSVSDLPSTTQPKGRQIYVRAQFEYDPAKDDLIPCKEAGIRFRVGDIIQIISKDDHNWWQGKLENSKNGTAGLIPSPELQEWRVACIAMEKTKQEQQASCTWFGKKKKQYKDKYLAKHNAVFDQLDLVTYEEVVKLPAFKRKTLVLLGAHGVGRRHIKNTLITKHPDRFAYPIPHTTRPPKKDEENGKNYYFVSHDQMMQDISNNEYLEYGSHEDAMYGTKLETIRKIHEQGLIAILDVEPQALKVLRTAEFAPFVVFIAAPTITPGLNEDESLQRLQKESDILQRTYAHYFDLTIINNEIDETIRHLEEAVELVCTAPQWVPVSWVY
T14 sequence (O75116 whole entry): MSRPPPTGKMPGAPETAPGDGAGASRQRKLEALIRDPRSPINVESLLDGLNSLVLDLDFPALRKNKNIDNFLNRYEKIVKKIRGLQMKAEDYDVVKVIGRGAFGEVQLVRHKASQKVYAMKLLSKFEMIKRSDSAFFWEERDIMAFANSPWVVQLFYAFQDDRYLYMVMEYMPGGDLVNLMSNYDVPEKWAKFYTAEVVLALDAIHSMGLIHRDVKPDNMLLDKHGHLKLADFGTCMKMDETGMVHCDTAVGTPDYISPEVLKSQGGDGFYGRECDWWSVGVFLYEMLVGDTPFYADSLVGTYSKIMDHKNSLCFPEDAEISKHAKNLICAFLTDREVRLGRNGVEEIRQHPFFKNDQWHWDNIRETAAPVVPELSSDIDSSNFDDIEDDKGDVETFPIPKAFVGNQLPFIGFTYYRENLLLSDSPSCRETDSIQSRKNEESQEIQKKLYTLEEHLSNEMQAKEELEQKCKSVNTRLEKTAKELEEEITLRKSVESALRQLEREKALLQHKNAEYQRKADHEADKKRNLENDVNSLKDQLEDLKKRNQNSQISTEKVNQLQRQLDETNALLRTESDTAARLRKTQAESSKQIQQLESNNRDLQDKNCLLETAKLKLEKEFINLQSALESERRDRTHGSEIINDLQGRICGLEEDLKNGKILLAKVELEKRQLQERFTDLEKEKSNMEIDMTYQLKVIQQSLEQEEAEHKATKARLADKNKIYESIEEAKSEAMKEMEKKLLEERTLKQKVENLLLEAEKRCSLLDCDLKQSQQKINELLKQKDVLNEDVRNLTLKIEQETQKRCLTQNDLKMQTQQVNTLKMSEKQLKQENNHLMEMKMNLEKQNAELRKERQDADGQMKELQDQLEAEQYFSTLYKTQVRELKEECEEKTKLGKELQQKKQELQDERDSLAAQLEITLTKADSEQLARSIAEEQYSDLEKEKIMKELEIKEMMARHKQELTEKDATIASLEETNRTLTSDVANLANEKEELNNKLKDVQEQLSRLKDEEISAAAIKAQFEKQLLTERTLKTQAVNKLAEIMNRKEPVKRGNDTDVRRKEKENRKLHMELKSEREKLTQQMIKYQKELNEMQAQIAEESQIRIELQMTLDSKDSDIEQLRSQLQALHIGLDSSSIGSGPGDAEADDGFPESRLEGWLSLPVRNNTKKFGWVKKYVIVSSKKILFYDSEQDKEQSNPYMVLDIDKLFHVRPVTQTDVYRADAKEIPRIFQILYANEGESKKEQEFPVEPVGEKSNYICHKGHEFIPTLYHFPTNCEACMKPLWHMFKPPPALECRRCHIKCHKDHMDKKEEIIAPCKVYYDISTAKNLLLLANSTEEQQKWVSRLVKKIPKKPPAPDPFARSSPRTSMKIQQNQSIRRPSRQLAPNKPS
T15 sequence (Q13163 whole entry): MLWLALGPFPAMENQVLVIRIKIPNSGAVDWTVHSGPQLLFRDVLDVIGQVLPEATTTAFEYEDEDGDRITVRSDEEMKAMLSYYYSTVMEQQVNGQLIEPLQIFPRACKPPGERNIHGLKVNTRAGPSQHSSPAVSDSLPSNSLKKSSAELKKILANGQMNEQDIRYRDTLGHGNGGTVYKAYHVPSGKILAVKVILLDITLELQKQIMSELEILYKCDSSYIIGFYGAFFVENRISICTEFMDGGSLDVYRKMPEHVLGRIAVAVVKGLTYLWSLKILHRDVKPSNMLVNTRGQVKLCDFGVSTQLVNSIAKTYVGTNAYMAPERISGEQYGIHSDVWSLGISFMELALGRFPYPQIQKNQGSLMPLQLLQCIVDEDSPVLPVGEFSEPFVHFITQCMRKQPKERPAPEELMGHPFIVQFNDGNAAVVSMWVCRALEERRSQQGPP
T30 sequence (O43683 whole entry): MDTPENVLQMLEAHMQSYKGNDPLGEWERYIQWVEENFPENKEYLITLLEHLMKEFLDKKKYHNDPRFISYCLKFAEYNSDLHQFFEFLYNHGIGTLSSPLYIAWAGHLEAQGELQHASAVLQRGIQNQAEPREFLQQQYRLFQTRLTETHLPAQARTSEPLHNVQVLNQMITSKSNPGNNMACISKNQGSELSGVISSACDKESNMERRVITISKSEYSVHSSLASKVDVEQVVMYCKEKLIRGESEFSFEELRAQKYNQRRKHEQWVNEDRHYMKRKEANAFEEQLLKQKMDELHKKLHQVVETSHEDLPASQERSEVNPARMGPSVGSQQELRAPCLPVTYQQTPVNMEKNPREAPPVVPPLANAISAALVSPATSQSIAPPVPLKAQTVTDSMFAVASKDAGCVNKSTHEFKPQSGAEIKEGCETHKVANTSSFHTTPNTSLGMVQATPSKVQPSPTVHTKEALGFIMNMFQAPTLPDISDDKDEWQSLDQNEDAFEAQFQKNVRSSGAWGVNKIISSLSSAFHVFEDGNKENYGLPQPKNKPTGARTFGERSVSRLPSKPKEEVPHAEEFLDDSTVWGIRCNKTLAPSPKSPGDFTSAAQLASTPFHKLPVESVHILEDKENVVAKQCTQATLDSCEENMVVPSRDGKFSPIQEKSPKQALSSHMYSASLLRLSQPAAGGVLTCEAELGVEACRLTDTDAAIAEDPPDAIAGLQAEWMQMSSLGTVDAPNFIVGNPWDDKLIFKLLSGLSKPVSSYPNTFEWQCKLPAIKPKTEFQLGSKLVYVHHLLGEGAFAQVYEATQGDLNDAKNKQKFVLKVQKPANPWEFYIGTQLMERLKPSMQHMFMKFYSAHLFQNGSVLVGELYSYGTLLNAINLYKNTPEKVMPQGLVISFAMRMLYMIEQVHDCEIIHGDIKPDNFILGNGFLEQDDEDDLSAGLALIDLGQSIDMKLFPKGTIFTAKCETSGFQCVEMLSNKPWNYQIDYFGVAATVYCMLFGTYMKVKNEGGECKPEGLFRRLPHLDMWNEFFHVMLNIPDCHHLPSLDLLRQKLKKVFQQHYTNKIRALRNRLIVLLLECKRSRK

## CN(C)C(=O)c1cc2cnc(Nc3ccc(-c4csc5c(=O)cc(N6CCOCC6)oc45)cc3)nc2n1C1CCCC1 [SRX3177]
Kinome (kinase panel) [1]
  remaining binding at 1 µM: 100%
Kinome (kinase panel) [2]
  remaining binding at 1 µM: 77%
Kinome (kinase panel) [3]
  remaining binding at 1 µM: 83%
Kinome (kinase panel) [4]
  remaining binding at 1 µM: 90%
Kinome (kinase panel) [5]
  Percent Control: 58
Kinome (kinase panel) [5]; read-out: Percent Control
  remaining binding at 1 µM: 72%
Kinome (kinase panel) [6]
  remaining binding at 1 µM: 76%
Kinome (kinase panel) [7]; RPS6KA5(Kin.Dom.1-N-terminal)
  remaining binding at 1 µM: 100%
Kinome (kinase panel) [7]; RPS6KA5(Kin.Dom.2-C-terminal)
  remaining binding at 1 µM: 100%
Kinome (kinase panel) [8]
  remaining binding at 1 µM: 71%
Kinome (kinase panel) [9]
  remaining binding at 1 µM: 97%
Kinome (kinase panel) [10]
  remaining binding at 1 µM: 66%
Kinome (kinase panel) [11]
  remaining binding at 1 µM: 100%
Kinome (kinase panel) [12]
  remaining binding at 1 µM: 56%
Kinome (kinase panel) [13]
  remaining binding at 1 µM: 45%
Kinome (kinase panel) [14]
  remaining binding at 1 µM: 46%
Kinome (kinase panel) [15]
  remaining binding at 1 µM: 12%
Kinome (kinase panel) [16]
  remaining binding at 1 µM: 81%
Kinome (kinase panel) [17]
  remaining binding at 1 µM: 100%
Kinome (kinase panel) [18]
  remaining binding at 1 µM: 62%
Kinome (kinase panel) [19]
  remaining binding at 1 µM: 98%
Kinome (kinase panel) [20]
  remaining binding at 1 µM: 89%
Kinome (kinase panel) [21]
  remaining binding at 1 µM: 38%
Kinome (kinase panel) [22]
  remaining binding at 1 µM: 100%
Kinome (kinase panel) [23]
  remaining binding at 1 µM: 79%
Kinome (kinase panel) [24]
  remaining binding at 1 µM: 100%
Kinome (kinase panel) [25]
  remaining binding at 1 µM: 84%
Kinome (kinase panel) [26]
  remaining binding at 1 µM: 100%
Kinome (kinase panel) [27]
  remaining binding at 1 µM: 35%
Kinome (kinase panel) [28]
  remaining binding at 1 µM: 100%
Kinome (kinase panel) [29]
  remaining binding at 1 µM: 94%
Kinome (kinase panel) [30]
  remaining binding at 1 µM: 50%
Kinome (kinase panel) [31]
  remaining binding at 1 µM: 92%
Kinome (kinase panel) [32]
  remaining binding at 1 µM: 100%
Kinome (kinase panel) [33]
  remaining binding at 1 µM: 41%
